We go through 2 molecules from patent US6410542B1, “Aminotetrazole derivatives useful as nitric oxide synthase inhibitors” (G. D. Searle & Co., priority 1994, dated 2002).

Where a name gives a salt, the structure may show the parent alone.

The target in data set [1] is Human inducible NOS (hiNOS) (Homo sapiens, UniProt P35228). Briefly: Citrulline assay for nitric oxide synthase, hiNOS. The class given is biochemical.
Description: Citrulline Assay for Nitric Oxide Synthase Nitric oxide synthase activity was measured by monitoring the conversion of L-[2,3-3H]-arginine to L-[2,3-3H]-citrulline (1,2). […] For constitutive NOS, calmodulin was included at a final concentration of 40-100 nM. Following incubation at 37° C. for 15 minutes, the reaction was terminated by addition of 300 μL cold buffer containing 10 mM EGTA, 100 mM HEPES (pH5.5) and 1.0 mM L-citrulline. The [3H]-citrulline was separated by chromatography on Dowex 50W X-8 cation exchange resin and radioactivity quantified with a liquid scintillation counter.
The nature of data set [2]: Physical properties on exposure to moisture in room air. The class given is physicochemical. Conditions: normal room air. The source says: It is also an advantage in that the compounds of the present invention have preferred physical properties as compared to compounds known in the art. […] In contrast, NIL, which is disclosed in WO 93/13055 when the hydrochloride salt can be isolated as a colorless crystal, but has the property of deliquescence. The compound quickly becomes a very viscous sticky oil upon exposure to moisture in normal room air which makes it difficult to handle.

Sequence of Human inducible NOS (hiNOS) (P35228 whole entry): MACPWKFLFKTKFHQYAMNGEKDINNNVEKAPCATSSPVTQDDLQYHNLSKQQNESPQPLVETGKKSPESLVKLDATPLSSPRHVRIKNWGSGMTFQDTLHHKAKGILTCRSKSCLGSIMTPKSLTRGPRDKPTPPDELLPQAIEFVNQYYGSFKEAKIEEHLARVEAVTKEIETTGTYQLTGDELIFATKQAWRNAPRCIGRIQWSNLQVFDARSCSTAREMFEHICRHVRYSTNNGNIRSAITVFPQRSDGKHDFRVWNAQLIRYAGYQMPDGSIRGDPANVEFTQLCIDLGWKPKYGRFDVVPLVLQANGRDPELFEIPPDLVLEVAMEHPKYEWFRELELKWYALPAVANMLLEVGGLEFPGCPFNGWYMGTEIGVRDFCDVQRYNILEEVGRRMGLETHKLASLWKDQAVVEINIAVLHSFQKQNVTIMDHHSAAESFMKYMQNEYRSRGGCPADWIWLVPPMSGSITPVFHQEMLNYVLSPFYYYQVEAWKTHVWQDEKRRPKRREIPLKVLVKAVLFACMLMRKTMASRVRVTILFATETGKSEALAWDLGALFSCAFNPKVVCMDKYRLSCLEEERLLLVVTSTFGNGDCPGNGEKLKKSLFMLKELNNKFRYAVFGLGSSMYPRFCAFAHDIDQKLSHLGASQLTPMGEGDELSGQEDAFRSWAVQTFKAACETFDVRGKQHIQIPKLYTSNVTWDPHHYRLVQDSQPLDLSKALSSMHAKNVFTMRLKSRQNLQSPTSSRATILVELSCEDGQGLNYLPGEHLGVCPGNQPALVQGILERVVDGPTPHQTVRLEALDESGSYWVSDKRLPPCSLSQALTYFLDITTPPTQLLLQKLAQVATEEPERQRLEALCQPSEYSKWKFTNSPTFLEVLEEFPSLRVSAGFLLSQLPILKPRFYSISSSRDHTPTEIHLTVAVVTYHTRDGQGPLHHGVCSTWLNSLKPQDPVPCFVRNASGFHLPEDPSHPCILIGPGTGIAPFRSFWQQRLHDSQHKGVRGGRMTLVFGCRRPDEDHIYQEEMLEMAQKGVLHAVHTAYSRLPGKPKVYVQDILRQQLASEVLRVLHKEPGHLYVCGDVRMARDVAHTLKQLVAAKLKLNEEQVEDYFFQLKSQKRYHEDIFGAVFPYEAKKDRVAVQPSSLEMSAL

What is called IC50 is the concentration at which inhibition is half-maximal. In turn, `CC(=N)NCCCC[C@H](N)C(=O)Nc1nnn[nH]1` [Example 1, 2S-amino-6-[(1-iminoethyl)amino]-N-(1H-tetrazol-5-yl) hexanamide, Hydrate, Dihydrochloride] showed a Selectivity in data set [1] (hiNOS over hecNOS) of 113. Besides, in data set [1] (in words), the “selectivity compared with NIL” value is recorded as “more selective than NIL”. Moreover, the IC50 in data set [1] (recombinant enzyme, L-arginine to L-citrulline conversion, 37° C., 15 minutes) was 21.4 µM. In data set [2], the “physical form / behaviour on exposure to moisture” value is on record as “crystalline product”.
Consider `CC(N)=NCCCC[C@@H](N)C(=O)O` [NIL, reference compound], for which the “physical form / behaviour on exposure to moisture” value in data set [2] is given as “deliquescence”.
